{"source": "Sander's compilation of Henry's law constants (doi:10.1016/0045-6535(88)90028-8)", "data": [{"experiment": "Henry solubility constant Hcp at 298.15 K (mol/(m3 Pa))", "details": "reference: Dunnivant and Elzerman (1988)", "values": [{"smiles": "Clc1ccc(-c2ccccc2)c(Cl)c1", "note": "[2,4-dichlorobiphenyl]", "Henry solubility constant Hcp": 0.028}, {"smiles": "Clc1ccc(Cl)c(-c2cc(Cl)c(Cl)cc2Cl)c1", "note": "[2,2',4,5,5'-pentachlorobiphenyl]", "Henry solubility constant Hcp": 0.039}, {"smiles": "Clc1ccc(-c2ccc(Cl)cc2)cc1", "note": "[4,4'-dichlorobiphenyl]", "Henry solubility constant Hcp": 0.05}, {"smiles": "Clc1ccc(Cl)c(-c2cc(Cl)ccc2Cl)c1", "note": "[2,2',5,5'-tetrachlorobiphenyl]", "Henry solubility constant Hcp": 0.029}, {"smiles": "Clc1cc(Cl)c(-c2cc(Cl)c(Cl)cc2Cl)cc1Cl", "note": "[2,2',4,4',5,5'-hexachlorobiphenyl]", "Henry solubility constant Hcp": 0.075}, {"smiles": "Clc1ccccc1-c1ccccc1Cl", "note": "[2,2'-dichlorobiphenyl]", "Henry solubility constant Hcp": 0.029}, {"smiles": "Clc1cc(Cl)c(-c2ccccc2)c(Cl)c1", "note": "[2,4,6-trichlorobiphenyl]", "Henry solubility constant Hcp": 0.015}, {"smiles": "Clc1cc(Cl)c(-c2c(Cl)cc(Cl)cc2Cl)c(Cl)c1", "note": "[2,2',4,4',6,6'-hexachlorobiphenyl]", "Henry solubility constant Hcp": 0.013}, {"smiles": "Clc1ccc(Cl)c(-c2ccccc2)c1", "note": "[2,5-dichlorobiphenyl]", "Henry solubility constant Hcp": 0.025}, {"smiles": "Clc1ccc(-c2ccc(Cl)c(Cl)c2)cc1Cl", "note": "[3,3',4,4'-tetrachlorobiphenyl]", "Henry solubility constant Hcp": 0.1}, {"smiles": "Clc1ccc(Cl)c(-c2ccccc2Cl)c1", "note": "[2,2',5-trichlorobiphenyl]", "Henry solubility constant Hcp": 0.026}, {"smiles": "Clc1cccc(-c2cccc(Cl)c2Cl)c1Cl", "note": "[2,2',3,3'-tetrachlorobiphenyl]", "Henry solubility constant Hcp": 0.049}, {"smiles": "Clc1ccc(-c2ccccc2)cc1Cl", "note": "[3,4-dichlorobiphenyl]", "Henry solubility constant Hcp": 0.048}, {"smiles": "Clc1cccc(Cl)c1-c1c(Cl)cccc1Cl", "note": "[2,2',6,6'-tetrachlorobiphenyl]", "Henry solubility constant Hcp": 0.018}, {"smiles": "Clc1cccc(-c2cc(Cl)ccc2Cl)c1", "note": "[2,3',5-trichlorobiphenyl]", "Henry solubility constant Hcp": 0.03}, {"smiles": "Clc1cccc(-c2cccc(Cl)c2)c1", "note": "[3,3'-dichlorobiphenyl]", "Henry solubility constant Hcp": 0.042}]}]}
